Experimental data from patent US20040023994A1 (priority 2002, published 2004).
Like-named read-outs stand apart in the source and are kept apart here.

Columns and labels:
MDA-N = type: cell-based; settings: Breast, 48 h
DU-145 = type: cell-based; settings: DU-145, Prostate, 48 h
TK-10 = type: cell-based; settings: TK-10, Renal, 48 h
HL-60(TB) = test: cells; settings: Homo sapiens, HL-60, 48 h
OVCAR-8 = settings: for CC50: read-out: LC50
786-0 = settings: 786-0, Renal, NCI database, cited from earlier work; for CC50: read-out: LC50 (the source's name)
SK-MEL-28 = settings: SK-MEL-28, Melanoma, NCI database, cited from earlier work; for CC50: read-out: LC50 (the source's name)
HOP-62 = settings: HOP-62, Non-Small Cell Lung, NCI database, cited from earlier work; for CC50: read-out: LC50 (the source's name)
NCI-H522 = settings: NCI-H522, Non-Small Cell Lung, 48 h
[1] = Homo sapiens, read-out: LC50 (the source's name)

Row | SMILES | TGI (MDA-N) [µM] | TGI (OVCAR-8; OVCAR-8, Ovarian, 48 h) [µM] | GI50 (786-0) [µM] | TGI (786-0) [µM] | CC50 (786-0) [µM] | GI50 (SK-MEL-28) [µM] | TGI (SK-MEL-28) [µM] | CC50 (SK-MEL-28) [µM] | GI50 (HOP-62) [µM] | TGI (HOP-62) [µM] | CC50 (HOP-62) [µM] | further results
1 | CC(=O)C=CSc1ncnc2nc[nH]c12 [cis-AVTP, 6-(2-acetylvinylthio) purine] | 4.48 | 5.93 |  |  |  |  |  |  |  |  |  | GI50 (MDA-N; Homo sapiens): 0.55 µM; CC50 (MDA-N; [1]): > 100 µM; TGI (DU-145): 3.97 µM; GI50 (DU-145; Homo sapiens): 1.32 µM; CC50 (DU-145; [1]): 24.4 µM; GI50 (TK-10; Homo sapiens): 0.03 µM; CC50 (TK-10; [1]): 13.9 µM; TGI (TK-10): 0.64 µM; GI50 (HL-60(TB)): 0.49 µM; CC50 (HL-60(TB); read-out: LC50): > 100 µM; GI50 (OVCAR-8; Homo sapiens, OVCAR-8, 48 h): 1.53 µM; CC50 (OVCAR-8; Homo sapiens, OVCAR-8, 48 h): > 100 µM
2 | Nc1nc2nc[nH]c2c(=S)[nH]1 [6-TG, 6-thioguanine] |  |  | 0.82 | >100 | > 100 | 8.91 | >100 | > 100 | 0.73 | 28.4 | > 100 | 
3 | Sc1ncnc2nc[nH]c12 [6-MP, 6-mercaptopurine] |  |  | 1.87 | >100 | > 100 | > 100 | >100 | > 100 | 1.69 | >100 | > 100 | 
4 | CC(=O)C=CSc1nc(N)nc2nc[nH]c12 [trans-AVTG, 6-(2-acetylvinylthio) guanine] | 10.3 | >100 |  |  |  |  |  |  |  |  |  | GI50 (MDA-N): 1.28 µM; GI50 (OVCAR-8; OVCAR-8, Ovarian, 48 h): 0.55 µM; CC50 (OVCAR-8; OVCAR-8, Ovarian, 48 h): > 100 µM; GI50 (MALME-3M; Melanoma, 48 h): 0.37 µM; TGI (MALME-3M; Melanoma, 48 h): 3.07 µM; CC50 (MALME-3M; read-out: LC50, Melanoma, 48 h): 29.3 µM; GI50 (NCI-H522): 0.02 µM; TGI (NCI-H522): 0.05 µM; CC50 (NCI-H522; read-out: LC50): 8.28 µM
